Test results reported in ChEMBL document CHEMBL3596196, “In vitro evaluation and in silico screening of synthetic acetylcholinesterase inhibitors bearing functionalized piperidine pharmacophores” (Bioorg Med Chem, 2015).

Biological target: Acetylcholinesterase (Homo sapiens, UniProt P22303)
Test: Inhibition of human acetylcholinesterase using ATCI/DTNB as substrate preincubated for 30 mins followed by substrate addition measured for 60 mins by Ellman method; call rule not given here

Sequence of Acetylcholinesterase (P22303 whole entry): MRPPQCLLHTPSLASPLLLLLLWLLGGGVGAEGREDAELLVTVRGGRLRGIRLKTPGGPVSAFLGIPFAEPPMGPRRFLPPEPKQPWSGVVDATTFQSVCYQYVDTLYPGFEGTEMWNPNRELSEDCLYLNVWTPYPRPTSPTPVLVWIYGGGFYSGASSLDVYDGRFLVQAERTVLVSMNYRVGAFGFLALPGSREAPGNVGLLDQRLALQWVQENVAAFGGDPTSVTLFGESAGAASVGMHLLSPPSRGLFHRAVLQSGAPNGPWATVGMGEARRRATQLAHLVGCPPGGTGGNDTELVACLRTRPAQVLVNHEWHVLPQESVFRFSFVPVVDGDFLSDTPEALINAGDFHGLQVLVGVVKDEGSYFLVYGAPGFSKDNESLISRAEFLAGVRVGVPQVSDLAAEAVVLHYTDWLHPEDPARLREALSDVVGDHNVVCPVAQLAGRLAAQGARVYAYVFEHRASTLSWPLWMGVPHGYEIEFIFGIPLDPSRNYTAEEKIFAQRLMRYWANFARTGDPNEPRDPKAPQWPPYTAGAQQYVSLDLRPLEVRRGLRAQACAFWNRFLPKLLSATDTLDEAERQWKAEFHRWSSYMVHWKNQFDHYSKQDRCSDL

Compound	IC50 (read-out: pIC50 (converted))	other results
COC(=O)C1=C(Nc2ccccc2)C[C@@H](c2ccccc2)N(c2ccccc2)[C@@H]1c1ccccc1	6.52 µM	–
CCOC(=O)C1=C(Nc2ccc(F)cc2)C[C@@H](c2ccc(Cl)cc2)N(c2ccc(F)cc2)[C@@H]1c1ccc(Cl)cc1	0.55 µM	–
COC(=O)C1=C(Nc2ccccc2)C[C@@H](c2ccc(Cl)cc2)N(c2ccccc2)[C@@H]1c1ccc(Cl)cc1	0.879 µM	–
CCOC(=O)C1=C(Nc2ccc(OC)cc2)C[C@@H](c2ccccc2)N(c2ccc(OC)cc2)[C@@H]1c1ccccc1	2.25 µM	–
COC(=O)C1=C(Nc2ccc(F)cc2)C[C@@H](c2ccccc2)N(c2ccc(F)cc2)[C@@H]1c1ccccc1	15.1 µM	–
COC(=O)C1=C(Nc2ccccc2)C[C@@H](c2ccccc2[N+](=O)[O-])N(c2ccccc2)[C@@H]1c1ccccc1[N+](=O)[O-]	–	IC50: Not Active
COC(=O)C1=C(Nc2ccccc2)C[C@@H](c2ccc3c(c2)OCO3)N(c2ccccc2)[C@@H]1c1ccc2c(c1)OCO2	0.511 µM	IC50 (read-out: IC50): 3270 µM
COC(=O)C1=C(Nc2ccc(F)cc2)C[C@@H](c2ccc(F)cc2)N(c2ccc(F)cc2)[C@@H]1c1ccc(F)cc1	3.2 µM	–
COC(=O)C1=C(Nc2ccccc2)C[C@@H](c2ccc(C)cc2)N(c2ccccc2)[C@@H]1c1ccc(C)cc1	5.73 µM	–
CCOC(=O)C1=C(Nc2ccccc2)C[C@@H](c2ccc(F)cc2)N(c2ccccc2)[C@@H]1c1ccc(F)cc1	0.39 µM	–
CCOC(=O)C1=C(Nc2ccc(OC)cc2)C[C@@H](c2ccc(C)cc2)N(c2ccc(OC)cc2)[C@@H]1c1ccc(C)cc1	4.98 µM	–
COC(=O)C1=C(Nc2ccc(Cl)cc2)C[C@@H](c2ccc(C)cc2)N(c2ccc(Cl)cc2)[C@@H]1c1ccc(C)cc1	2.15 µM	–
CCOC(=O)C1=C(Nc2ccc(C)cc2)C[C@@H](c2ccccc2)N(c2ccc(C)cc2)[C@@H]1c1ccccc1	5.18 µM	–
CCOC(=O)C1=C(Nc2ccccc2)C[C@@H](c2ccc(C)cc2)N(c2ccccc2)[C@@H]1c1ccc(C)cc1	5.58 µM	–
COC(=O)C1=C(Nc2ccc(C)cc2)C[C@@H](c2ccc(C)cc2)N(c2ccc(C)cc2)[C@@H]1c1ccc(C)cc1	6.78 µM	–
COC(=O)C1=C(Nc2ccc(Br)cc2)C[C@@H](c2ccc(C)cc2)N(c2ccc(Br)cc2)[C@@H]1c1ccc(C)cc1	2.48 µM	–
COC(=O)C1=C(Nc2ccc(Br)cc2)C[C@@H](c2ccc(Cl)cc2)N(c2ccc(Br)cc2)[C@@H]1c1ccc(Cl)cc1	0.879 µM	–
COC(=O)C1=C(Nc2ccc(OC)cc2)C[C@@H](c2ccc(C)cc2)N(c2ccc(OC)cc2)[C@@H]1c1ccc(C)cc1	5.83 µM	–
CCOC(=O)C1=C(Nc2ccc(C)cc2)C[C@@H](c2ccc(Cl)cc2)N(c2ccc(C)cc2)[C@@H]1c1ccc(Cl)cc1	5.4 µM	–
CC(C)(C)OC(=O)C1=C(Nc2ccccc2)C[C@@H](c2ccccc2)N(c2ccccc2)[C@@H]1c1ccccc1	2.79 µM	–
CCOC(=O)C1=C(Nc2ccc(Cl)cc2)C[C@@H](c2ccc(OC)cc2)N(c2ccc(Cl)cc2)[C@@H]1c1ccc(OC)cc1	0.38 µM	–
CCOC(=O)C1=C(Nc2ccccc2)C[C@@H](c2ccccc2)N(c2ccccc2)[C@@H]1c1ccccc1	2.95 µM	–
COC(=O)C1=C(Nc2ccc(Br)cc2)C[C@@H](c2ccc(OC)cc2)N(c2ccc(Br)cc2)[C@@H]1c1ccc(OC)cc1	2.16 µM	–
COC(=O)C1=C(Nc2ccc(Cl)cc2)C[C@@H](c2ccc(F)cc2)N(c2ccc(Cl)cc2)[C@@H]1c1ccc(F)cc1	0.71 µM	–
CCOC(=O)C1=C(Nc2ccc(Cl)cc2)C[C@@H](c2ccccc2)N(c2ccc(Cl)cc2)[C@@H]1c1ccccc1	4.6 µM	–
